Some test systems named below: M14 melanoma; SF-295 CNS; NCI-H460 lung; SK-MEL-28 melanoma; HOP-62 NSCLC; 786-0 renal; TK-10 renal; EKVX NSCLC; CAKI-1 renal; SW-620 colon.
Holding throughout (assay): inhibition of tumour cell growth, NCI panel, 48 h

Results on 9 compounds are retold here after PubChem BioAssay (NCI).

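Values below derive from 48-hour exposures of cells grown in 96-well plates, with endpoints linearly interpolated between the two concentrations bracketing the appropriate inhibition level. Here, GI50 denotes the concentration required for 50% inhibition of growth. At the TGI there is no net growth.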

Consider `CC(C)(C)C1C=C(Sc2ccccc2)C(=O)O1` (stereo not given), for which the TGI with M14 melanoma, in the assay on SF-295 CNS, in the assay with NCI-H460 lung, in the assay with SK-MEL-28 melanoma, with HOP-62 NSCLC and with 786-0 renal was greater than 100 µM in each case. Moreover, the TGI in the assay on TK-10 renal, in the assay with EKVX NSCLC, in the assay with CAKI-1 renal and in the assay with SW-620 colon was greater than 100 µM each time.

With `OCc1c[nH]c2ccccc12`, the GI50 was 23.4 µM in the assay with M14 melanoma; 19.4 µM in the assay with SF-295 CNS; 21 µM in the assay with NCI-H460 lung; 23.5 µM in the assay with SK-MEL-28 melanoma; 14.4 µM with HOP-62 NSCLC; 33.7 µM in the assay on 786-0 renal. The GI50 in the assay on TK-10 renal was 44.5 µM; in the assay on EKVX NSCLC, 15.5 µM; in the assay on CAKI-1 renal it was 15.8 µM; in the assay on SW-620 colon, 17.9 µM. In addition, the TGI in the assay with M14 melanoma came out at 54.1 µM; with SF-295 CNS, 40.9 µM; in the assay with NCI-H460 lung, 45.4 µM; in the assay with SK-MEL-28 melanoma, 50.1 µM; in the assay on HOP-62 NSCLC, 36.7 µM; in the assay on 786-0 renal, 93.3 µM. Also, the TGI was greater than 100 µM with TK-10 renal, 63.3 µM in the assay with EKVX NSCLC, 52.8 µM with CAKI-1 renal and 36.8 µM in the assay with SW-620 colon.

On to `Oc1ccc(NCc2nc3ccccc3[nH]2)cc1`, for which the GI50 with M14 melanoma was greater than 100 µM; with SF-295 CNS it was 24.4 µM; in the assay with NCI-H460 lung it was 41.9 µM; in the assay with SK-MEL-28 melanoma, 38.4 µM; with HOP-62 NSCLC, 22.4 µM; with 786-0 renal it was 74.5 µM. For the same compound, the GI50 in the assay on TK-10 renal was greater than 100 µM; in the assay on EKVX NSCLC it was 46.2 µM; with CAKI-1 renal it was greater than 100 µM; in the assay on SW-620 colon it was greater than 100 µM. Besides, the TGI is greater than 100 µM with M14 melanoma; 97.2 µM with SF-295 CNS; greater than 100 µM in the assay with NCI-H460 lung; greater than 100 µM in the assay with SK-MEL-28 melanoma; 62.2 µM in the assay with HOP-62 NSCLC; greater than 100 µM with 786-0 renal. Moreover, the TGI in the assay on TK-10 renal, with EKVX NSCLC, in the assay with CAKI-1 renal and with SW-620 colon was greater than 100 µM throughout.

With `Nc1cc(N)c2nc(-c3ccccc3)c(Nc3ccc(Cl)c(Cl)c3)nc2c1`, the GI50 in the assay with M14 melanoma was 14.7 µM; in the assay on SF-295 CNS it was 12.4 µM; in the assay on NCI-H460 lung it was 8.27 µM; with SK-MEL-28 melanoma it was 16.1 µM; in the assay on HOP-62 NSCLC it was 17.5 µM; in the assay with 786-0 renal, 14.7 µM. In addition, the GI50 in the assay with TK-10 renal was 13.7 µM; in the assay on EKVX NSCLC it was 3.83 µM; in the assay on CAKI-1 renal, 13.5 µM; in the assay on SW-620 colon it was 13.3 µM. In addition, the TGI came out at 60 µM with M14 melanoma; 27.9 µM with SF-295 CNS; 22.9 µM with NCI-H460 lung; 44.2 µM in the assay on SK-MEL-28 melanoma; 38.4 µM with HOP-62 NSCLC; 37 µM with 786-0 renal. The TGI with TK-10 renal is 30.1 µM; with EKVX NSCLC, 16.2 µM; in the assay on CAKI-1 renal, 29.6 µM; in the assay on SW-620 colon it was 51.8 µM.

With `C=CCCCCCCCCC(=O)[O][Sn]([CH2]CCC)([CH2]CCC)[CH2]CCC`, the GI50 with M14 melanoma is 0.156 µM; in the assay with SF-295 CNS it was 0.159 µM; in the assay with NCI-H460 lung it was 0.152 µM; in the assay on SK-MEL-28 melanoma, 0.157 µM; in the assay with HOP-62 NSCLC, 0.172 µM; with 786-0 renal, 0.143 µM. The GI50 was 0.165 µM with TK-10 renal, 0.131 µM in the assay with EKVX NSCLC, 0.112 µM in the assay on CAKI-1 renal and 0.162 µM with SW-620 colon. For the same compound, the TGI amounted to 0.299 µM in the assay on M14 melanoma; 0.337 µM with SF-295 CNS; 0.312 µM in the assay with NCI-H460 lung; 0.296 µM in the assay with SK-MEL-28 melanoma; 0.346 µM in the assay with HOP-62 NSCLC; 0.275 µM in the assay with 786-0 renal. Also, the TGI with TK-10 renal was found to be 0.311 µM; in the assay with EKVX NSCLC it was 0.32 µM; in the assay on CAKI-1 renal it was 0.3 µM; with SW-620 colon, 0.332 µM.

With `Cc1cccc(C)c1NC(=O)C(=O)C1C(=O)NC(=O)NC1=O`, the TGI in the assay on M14 melanoma, in the assay with SF-295 CNS, with NCI-H460 lung, with SK-MEL-28 melanoma, in the assay with HOP-62 NSCLC and with 786-0 renal was greater than 100 µM each time. The TGI in the assay with TK-10 renal, with EKVX NSCLC, with CAKI-1 renal and with SW-620 colon was greater than 100 µM throughout.

For the compound `COC(=O)/C(=N/NC(=O)C[N+](C)(C)C)C(C(=O)OC)C(=O)C(=O)Nc1ccc(F)cc1` (stereo not given), the TGI in the assay with M14 melanoma, in the assay with SF-295 CNS, in the assay on NCI-H460 lung, in the assay with SK-MEL-28 melanoma, in the assay on HOP-62 NSCLC and in the assay on 786-0 renal was greater than 100 µM each time. For the same compound, the TGI in the assay with TK-10 renal, in the assay on EKVX NSCLC, in the assay with CAKI-1 renal and in the assay with SW-620 colon was greater than 100 µM in each case.

Turning to `Oc1ccc2ccccc2c1N=Nc1nccs1`, the GI50 is 2.97 µM with M14 melanoma; 3.93 µM in the assay with SF-295 CNS; 0.839 µM with NCI-H460 lung; 2.55 µM in the assay on SK-MEL-28 melanoma; 3.87 µM in the assay on HOP-62 NSCLC; 0.476 µM in the assay with 786-0 renal. Besides, the GI50 in the assay with TK-10 renal is 8.28 µM; in the assay on EKVX NSCLC, 0.807 µM; in the assay on CAKI-1 renal it was 0.323 µM; with SW-620 colon, 0.396 µM. In addition, the TGI was 18.3 µM in the assay on M14 melanoma; greater than 57.4 µM in the assay on SF-295 CNS; greater than 100 µM with NCI-H460 lung; 18.6 µM in the assay with SK-MEL-28 melanoma; 56.8 µM in the assay on HOP-62 NSCLC; greater than 41.7 µM in the assay on 786-0 renal. Also, the TGI is 22.2 µM with TK-10 renal, greater than 54.3 µM with EKVX NSCLC, 11.6 µM with CAKI-1 renal and 19.5 µM in the assay with SW-620 colon.

In the case of `COC1/C=C\C=C(/C)C(=O)NC2=CC(=O)C(=O)C(=C2O)CC(C)CC(OC)C(O)C(C)/C=C(\C)C1OC(N)=O` (stereo not given), the TGI was greater than 53.2 µM in the assay with M14 melanoma; greater than 100 µM in the assay with SF-295 CNS; greater than 100 µM with NCI-H460 lung; greater than 49.3 µM in the assay with SK-MEL-28 melanoma; greater than 74.1 µM in the assay with HOP-62 NSCLC; 24.3 µM in the assay on 786-0 renal. Further, the TGI in the assay on TK-10 renal is greater than 57.5 µM; in the assay with EKVX NSCLC it was 32.7 µM; in the assay on CAKI-1 renal, greater than 42 µM; in the assay with SW-620 colon it was 18.3 µM.
